As a reminder, the melting point is the temperature of the solid-liquid transition.

Here are results for 13 molecules from US11185073B2, “Microbiocidal quinoline (thio)carboxamide derivatives” (SYNGENTA PARTICIPATIONS AG, priority 2017, dated 2021).

Molecules are shown by their SMILES.

In series [1] the test system is Magnaporthe grisea (Pyricularia oryzae). As to the kind of experiment: microbe, parasite or virus in culture. It is filed as cell-based. The settings on record: 72 h, read-out: control of Magnaporthe grisea.
Series [2] has as its system Botryotinia fuckeliana (Botrytis cinerea). As to the kind of experiment: Botryotinia fuckeliana (Botrytis cinerea) / liquid culture (gray mould). It counts as cell-based. The settings on record: 72 h, growth inhibition photometrically 3-4 days after application, compared to untreated control.
The test system of series [3] is Glomerella lagenarium (Colletotrichum lagenarium). As to the kind of experiment: Glomerella lagenarium (Colletotrichum lagenarium) / liquid culture (anthracnose). It counts as cell-based. Conditions: Colletotrichum orbiculare, growth inhibition photometrically 3-4 days after application, compared to untreated control.
The subject of series [4] is Monographella nivalis (Microdochium nivale). As to the kind of experiment: Monographella nivalis (Microdochium nivale) / liquid culture (foot rot cereals). It is filed as cell-based. The settings on record: 96 h, growth inhibition photometrically 4-5 days after application, compared to untreated control.
For series [5], the system named is Fusarium culmorum. As to the kind of experiment: microbe, parasite or virus in culture. It is filed as cell-based. The settings on record: 72 h, read-out: control of Fusarium culmorum.
Series [6] has as its system Fusarium culmorum. As to the kind of experiment: whole plant or invertebrate. It is filed as in vivo. Conditions: in Triticum aestivum, read-out: control of Fusarium culmorum.
Series [7] relates to Gibberella zeae (Fusarium graminearum). As to the kind of experiment: whole plant or invertebrate. It is filed as in vivo. The settings on record: in Triticum aestivum, read-out: control of Gibberella zeae.

As to `CC1(C)CC(OCC(C)(CC(F)(F)F)NC(=O)c2cnc3c(Cl)cccc3c2)C1` (stereo not shown) [E.002, 8-chloro-N-[1-[(3,3-dimethyl-cyclobutoxy)-methyl]-3,3,3-trifluoro-1-methylpropyl]-quinoline-3-carboxamide], the melting point was in the range of 127 to 130 °C. The inhibition of growth at 20 ppm in series [1] was at least 80%. Moreover, the inhibition of growth at 20 ppm in series [2] was at least 80%. In series [3], this molecule returned an inhibition of growth at 20 ppm of at least 80%. The inhibition of growth at 20 ppm in series [4] is at least 80%. Moreover, the inhibition of growth at 20 ppm in series [5] is at least 80%. Moreover, in series [6], the pest or weed control at 200 ppm was at least 80%.

In the case of `CC(COc1ccc(Cl)cc1)(CC(F)(F)F)NC(=O)c1cnc2c(F)cccc2c1` (stereo not shown) [E.005, N-[1-[(4-chloro-phenoxy)methyl]-3,3,3-trifluoro-1-methyl-propyl]-8-fluoro-quinoline-3-carboxamide], the melting point lay in the range of 94 to 96 °C. For the same molecule, the inhibition of growth at 20 ppm in series [1] was at least 80%. This molecule also came in with an inhibition of growth at 20 ppm in series [2] of at least 80%. In series [3], this molecule had an inhibition of growth at 20 ppm of at least 80%. Moreover, the inhibition of growth at 20 ppm in series [4] is at least 80%. In addition, the inhibition of growth at 20 ppm in series [5] is at least 80%. Besides, the pest or weed control at 200 ppm in series [6] is at least 80%.

The molecule `CC(C)(C)COCC(C)(CC(F)(F)F)NC(=O)c1cnc2c(F)cccc2c1` (stereo not shown) [E.001, N-[1-(2,2-dimethyl-propoxymethyl)-3,3,3-trifluoro-1-methyl-propyl]-8-fluoro-quinoline-3-carboxamide] returned a melting point of 74 to 78 °C. Also, the inhibition of growth at 20 ppm in series [1] was at least 80%. In addition, the inhibition of growth at 20 ppm in series [2] is at least 80%. In series [3], this molecule had an inhibition of growth at 20 ppm of at least 80%. Moreover, the inhibition of growth at 20 ppm in series [4] was at least 80%. For the same molecule, the pest or weed control at 200 ppm in series [7] is at least 80%. Further, in series [5], the inhibition of growth at 20 ppm is at least 80%. In addition, the pest or weed control at 200 ppm in series [6] is at least 80%.

Consider `CC(COC1CCCCCC1)(CC(F)(F)F)NC(=O)c1cnc2c(F)cccc2c1` (stereo not shown) [E.026, N-[1-(cyclohept-oxymethyl)-3,3,3-trifluoro-1-methyl-propyl)-8-fluoro-quinoline-3-carboxamide], for which the melting point is 80 to 85 °C. Further, in series [1], the inhibition of growth at 20 ppm was at least 80%. Besides, the inhibition of growth at 20 ppm in series [2] was at least 80%. This molecule also gave an inhibition of growth at 20 ppm in series [3] of at least 80%. Further, the inhibition of growth at 20 ppm in series [4] was at least 80%. For the same molecule, the inhibition of growth at 20 ppm in series [5] was at least 80%. Besides, the pest or weed control at 200 ppm in series [6] was at least 80%.

As for `CC(COC1CCC(F)(F)CC1)(CC(F)(F)F)NC(=O)c1cnc2c(F)cccc2c1` (stereo not shown) [E.003, N-[1-[(4,4-difluoro-cyclohexoxy)-methyl]-3,3,3-trifluoro-1-methyl-propyl]-8-fluoro-quinoline-3-carboxamide], the melting point was 42 to 44 °C. For the same molecule, the inhibition of growth at 20 ppm in series [1] is at least 80%. Also, the inhibition of growth at 20 ppm in series [2] is at least 80%. For the same molecule, the inhibition of growth at 20 ppm in series [3] was at least 80%. In series [4], this molecule gave an inhibition of growth at 20 ppm of at least 80%. Further, in series [7], the pest or weed control at 200 ppm is at least 80%. In addition, the inhibition of growth at 20 ppm in series [5] is at least 80%. Moreover, the pest or weed control at 200 ppm in series [6] is at least 80%.

Turning to `COCC(C)(CC(C)C)NC(=O)c1cnc2c(F)cccc2c1` (stereo not shown) [E.032, 8-fluoro-N-[1-(methoxymethyl)-1,3-dimethyl-butyl]quinoline-3-carboxamide], the melting point lay within 136 to 138 °C. In series [2], this molecule showed an inhibition of growth at 20 ppm of at least 80%. The inhibition of growth at 20 ppm in series [5] is at least 80%.

As for `CC(C)CC(C)(COCc1ccccc1)NC(=O)c1cnc2c(F)cccc2c1` (stereo not shown) [E.030, N-[1-(benzyloxy-methyl)-1,3-dimethyl-butyl]-8-fluoro-quinoline-3-carboxamide], the melting point lay within 120 to 122 °C. Also, the inhibition of growth at 20 ppm in series [1] was at least 80%. In addition, in series [2], the inhibition of growth at 20 ppm was at least 80%. Also, the inhibition of growth at 20 ppm in series [3] was at least 80%. In series [4], this molecule had an inhibition of growth at 20 ppm of at least 80%. Also, the inhibition of growth at 20 ppm in series [5] is at least 80%.

Take `Cc1c(C(=O)NC(C)(COC2CCC2)CC(F)(F)F)cnc2c(F)cccc12` (stereo not shown) [E.007, N-[1-(cyclo-butoxymethyl)-3,3,3-trifluoro-1-methyl-propyl]-8-fluoro-4-methyl-quinoline-3-carboxamide]: the inhibition of growth at 20 ppm in series [1], in series [2], in series [3], in series [4] and in series [5] was at least 80% throughout. Further, the pest or weed control at 200 ppm in series [7] and in series [6] was at least 80% in each case.

With `CC(C)COCC(C)(CC(C)C)NC(=O)c1cnc2c(F)cccc2c1` (stereo not shown) [E.025, 8-fluoro-N-[1-(iso-butoxymethyl)-1,3-dimethyl-butyl]-quinoline-3-carboxamide], the inhibition of growth at 20 ppm in series [1], in series [2], in series [3], in series [4] and in series [5] was at least 80% each time. Besides, the pest or weed control at 200 ppm in series [7] and in series [6] was at least 80% each time.

As to `CC(COC1CCC1)(CC(F)(F)F)NC(=O)c1cnc2c(Cl)cccc2c1` (stereo not shown) [E.012, 8-chloro-N-[1-(cyclobutoxymethyl)-3,3,3-trifluoro-1-methyl-propyl]-quinoline-3-carboxamide], the inhibition of growth at 20 ppm in series [1], in series [2], in series [3], in series [4] and in series [5] was at least 80% each time. The pest or weed control at 200 ppm in series [7] and in series [6] was at least 80% in each case.

Consider `C[C@](COC1CCCCC1)(CC(F)(F)F)NC(=O)c1cnc2c(F)cccc2c1` [E.016, N-[(1R)-1-(cyclo-hexoxymethyl)-3,3,3-trifluoro-1-methyl-propyl]-8-fluoro-quinoline-3-carboxamide], for which the melting point lay in the range of 80 to 85 °C. Besides, the inhibition of growth at 20 ppm in series [1] was at least 80%. Also, the inhibition of growth at 20 ppm in series [2] is at least 80%. Moreover, the inhibition of growth at 20 ppm in series [3] was at least 80%. In addition, the inhibition of growth at 20 ppm in series [4] is at least 80%. The inhibition of growth at 20 ppm in series [5] was at least 80%. Also, the pest or weed control at 200 ppm in series [6] was at least 80%.

Regarding `CC(C)CC(C)(COC1CCC1)NC(=O)c1cnc2c(F)cccc2c1` (stereo not shown) [E.023, N-[1-(cyclo-butoxymethyl)-1,3-dimethyl-butyl]-8-fluoro-quinoline-3-carboxamide], the inhibition of growth at 20 ppm in series [1], in series [2], in series [3], in series [4] and in series [5] was at least 80% each time. Also, the pest or weed control at 200 ppm in series [7] and in series [6] was at least 80% each time.

In turn, `CC1(C)CC(OCC(C)(CC(F)(F)F)NC(=O)c2cnc3c(F)cccc3c2)C1` (stereo not shown) [E.004, N-[1-[(3,3-dimethyl-cyclobutoxy)-methyl]-3,3,3-trifluoro-1-methyl-propyl]-8-fluoro-quinoline-3-carboxamide] yielded a melting point of 80 to 84 °C. Moreover, the inhibition of growth at 20 ppm in series [1] is at least 80%. The molecule further gave an inhibition of growth at 20 ppm in series [2] of at least 80%. The inhibition of growth at 20 ppm in series [3] was at least 80%. This molecule also registered an inhibition of growth at 20 ppm in series [4] of at least 80%. In addition, the inhibition of growth at 20 ppm in series [5] is at least 80%. For the same molecule, the pest or weed control at 200 ppm in series [6] was at least 80%.
